This experiment concerns HIV-1 LTR-III G-quadruplex (FAM/TAMRA-labeled LTR-III). Kind of experiment: FRET melting assay, LTR-III G4. The class given is binding. To be noted: Table S1 primary screening, ligand:ODN 50:1, singlicate. The protocol: To evaluate stabilizing properties of the ligands in a complex with oligodeoxyribonucleotides (ODNs) melting with fluorescence registration was used. ODN (0.5 μM) (Table 1), labeled with 6-carboxyfluorescein (FAM) and 6-carboxytetramethylrhodamine (TAMRA) at the 5′- and 3′-end, respectively, were folded in lithium cacodylate buffer (10 mM, pH 7.4) with 100 mM KCl by heating at 95 °C for 5 min and gradually cooling to r.t. GFP chromophore analogs (5 mM solution in DMSO) were diluted with the same buffer to the final concentration of 25 μM and mixed with an equal volume of 0.5 μM ODN solution resulting in a molar ratio of 50:1 (total volume was 50 μL). For the titration experiments molar ratios of 20:1 and 2:1 were used. Samples were analyzed using DTprime qPCR system (DNA-Technology LLC, Moscow, Russia). Fluorescence was registered by detection of FAM emission at 520 nm upon excitation at 495 nm in the temperature range of 30–95 °C with 1 °C/min gradient. Tm was determined using the instrument software and ΔTm was calculated relative to ODN Tm in a buffer solution containing 0.25% (v/v) DMSO. The primary and secondary screening were carried out in singlicate and triplicate, respectively.
As to `CC1=NC(=Cc2ccc(C(=O)O)cc2)C(=O)N1C` [AI 89], the “LTR-III ΔTm” value is -0.5 °C.

Take `COC(=O)c1ccc(C=C2N=C(C=Cc3ccc(OC)cc3)N(C)C2=O)cc1` [AI 116]: the “LTR-III ΔTm” value is 0.8 °C.

For `COc1ccc(C=CC2=NC(=Cc3cc(OC)ccc3OC)C(=O)N2C)cc1` [AI 118], the “LTR-III ΔTm” value is -0.1 °C.

`COc1ccc(C=CC2=NC(=Cc3ccc([N+](=O)[O-])cc3)C(=O)N2C)cc1` [AI 119]: the “LTR-III ΔTm” value is 1.4 °C.

In the case of `COc1ccc(C=CC2=NC(=Cc3cc4cc(OC)ccc4cc3OC)C(=O)N2C)cc1` [AI 126], the “LTR-III ΔTm” value turned out to be 1.6 °C.

Turning to `CC(C)OC(=O)c1noc(=O)c(O)c1-c1ccc(O)cc1` [AL 23], the “LTR-III ΔTm” value came out at 0 °C.

`CC(C)OC(=O)c1noc(C(=O)NC2CCCCC2)c1-c1cccs1` [AL 25]: the “LTR-III ΔTm” value was -0.1 °C.

Consider `COc1ccc(NC(=O)c2onc(C(=O)OC(C)C)c2-c2ccc(OC)cc2)cc1` [AL 45], for which the “LTR-III ΔTm” value came out at 0.2 °C.

For `CCNCC.CCOC(=O)c1noc(=O)c(O)c1-c1ccccc1` [AL 58], the “LTR-III ΔTm” value amounted to 0.1 °C.

With `COc1ccc(C=CC2=NC(=Cc3ccnc4ccccc34)C(=O)N2C)cc1` [AL 122], the “LTR-III ΔTm” value was -0.6 °C.

`COc1ccc(C=CC2=NC(=Cc3ccnc4ccccc34)C(=O)N2C)cc1` [AL 125]: the “LTR-III ΔTm” value turned out to be 1.7 °C.

Consider `CCC1=NC(=Cc2cc(C(C)(C)C)c(O)c(C(C)(C)C)c2)C(=O)N1C` [AL 135.2], for which the “LTR-III ΔTm” value was -1.3 °C.

Consider `CN(C)c1ccc(C=C2NC(=S)NC2=O)cc1` [AL 165], for which the “LTR-III ΔTm” value is -0.2 °C.

As for `CSC1=NC(=Cc2ccc(N(C)C)cc2)C(=O)N1` [AL 166.1], the “LTR-III ΔTm” value was 0.1 °C.

Take `CCN(CC)c1ccc(C=C2NC(=S)NC2=O)cc1` [AL 172]: the “LTR-III ΔTm” value is -0.2 °C.

On to `CN1C(=O)C(=Cc2ccc(O[Si](c3ccccc3)(c3ccccc3)C(C)(C)C)cc2)N=C1c1ccccc1` [Amm 75], for which the “LTR-III ΔTm” value is -0.3 °C.

For the compound `CN1C(=O)C(=Cc2ccc(O)cc2)N=C1CCCCNC(=O)OC(C)(C)C` [Boc-AV-GFP], the “LTR-III ΔTm” value is 0.2 °C.

Turning to `COc1cc(C=C2SC(=S)NC2=O)cc(OC)c1O` [DOM], the “LTR-III ΔTm” value was -0.6 °C.

On to `CC1=NC(=Cc2ccc(O)cc2)C(=O)N1` [GA 01], for which the “LTR-III ΔTm” value was -0.4 °C.

On to `CN1C=NC(=Cc2ccc(O)cc2)C1=O` [GA 02], for which the “LTR-III ΔTm” value was -0.4 °C.

`CC1=NC(=Cc2ccc(O)cc2)C(=O)N1C` [GA 03]: the “LTR-III ΔTm” value amounted to 0.5 °C.

Take `CCC1=NC(=Cc2ccc(O)cc2)C(=O)N1C` [GA 04]: the “LTR-III ΔTm” value is -0.1 °C.

For the compound `CCCC1=NC(=Cc2ccc(O)cc2)C(=O)N1C` [GA 05], the “LTR-III ΔTm” value is -0.5 °C.

Turning to `CC(C)C1=NC(=Cc2ccc(O)cc2)C(=O)N1C` [GA 06], the “LTR-III ΔTm” value was -0.7 °C.

Take `CC1=NC(=Cc2ccc(O)cc2)C(=O)N1CCO` [GA 12]: the “LTR-III ΔTm” value was determined as 0.3 °C.

As for `CCC1=NC(=Cc2ccc(O)cc2)C(=O)N1O` [GA 15], the “LTR-III ΔTm” value is -0.1 °C.

`CON1C(=O)C(=Cc2ccc(O)cc2)N=C1C` [GA 16]: the “LTR-III ΔTm” value amounted to 0.3 °C.

`CC(C)CCC1=NC(=Cc2ccc(O)cc2)C(=O)N1C` [GA 18]: the “LTR-III ΔTm” value is -0.1 °C.

As to `CCN(CC)c1ccc(C=C2N=C(C)N(C)C2=O)cc1` [GC 01], the “LTR-III ΔTm” value is 0.4 °C.

On to `CCN(CC)c1ccc(C=C2N=C(C)N(CCCC(=O)O)C2=O)cc1` [GC 03], for which the “LTR-III ΔTm” value is 0.4 °C.

For the compound `CCN(CC)c1ccc(C=C2N=C(C)N(C)C2=O)cc1` [GC 04], the “LTR-III ΔTm” value stood at 0 °C.

On to `CC1=NC(=Cc2c[nH]c3ccccc23)C(=O)N1C` [GC 07], for which the “LTR-III ΔTm” value is -0.4 °C.

`CN1C(=O)C(=Cc2ccc(O)cc2)N=C1Cc1ccccc1` [GFP-2-Bn]: the “LTR-III ΔTm” value is -1.5 °C.

For the compound `CNC(=O)C(=Cc1ccc(Br)cc1)NC(=O)c1ccccc1` [GR 83], the “LTR-III ΔTm” value was -0.8 °C.

For the compound `CN1C(=O)C(=Cc2ccc(OCC(NC(=O)OC(C)(C)C)C(=O)O)cc2)N=C1c1ccccc1` (stereo not shown) [GR 161], the “LTR-III ΔTm” value was -0.2 °C.

Turning to `O=C1NC(=S)SC1=Cc1ccc(O)cc1` [HBR], the “LTR-III ΔTm” value is -0.2 °C.

For `Cc1cc(/C=C2\SC(=S)NC2=O)ccc1O` [HMBR], the “LTR-III ΔTm” value is -0.6 °C.

As for `COc1ccc(C=C2N=C3C(=O)NCCN3C2=O)cc1` [JL 06.1], the “LTR-III ΔTm” value was determined as 0.1 °C.

For the compound `COc1ccc(C=C2N=C3C(=O)NCCN3C2=O)cc1OC` [JL 06.2], the “LTR-III ΔTm” value came out at 0.4 °C.

`CCN(CC)c1ccc(/C=C2\N=C3C(=O)NCCN3C2=O)cc1` [JL 19]: the “LTR-III ΔTm” value stood at 0.1 °C.

Consider `CC(=O)Oc1ccc(C=C2N=C(C=C(OC(=O)c3ccc(C)cc3)c3ccc(C)cc3)N(C)C2=O)cc1` [M 202], for which the “LTR-III ΔTm” value is -0.6 °C.

For `CN1C(=O)C(=Cc2ccc(OC(=O)c3ccccc3)cc2)N=C1C=C(OC(=O)c1ccccc1)c1ccccc1` [M 228], the “LTR-III ΔTm” value was -0.8 °C.

For the compound `CCC(=O)Oc1ccc(C=C2N=C(CC)OC2=O)cc1` [M 292], the “LTR-III ΔTm” value is -0.6 °C.

In the case of `O=C1NC(C=Cc2cc(Br)c(O)c(Br)c2)=NC1=Cc1ccc(O)cc1` [M 295], the “LTR-III ΔTm” value was -0.5 °C.

For the compound `COc1ccc(C=C2N=C(C)N(OC)C2=O)cc1` [M 312], the “LTR-III ΔTm” value was -0.2 °C.

Consider `CCC1=NC(=Cc2ccc(O)cc2)C(=O)N1OC` [M 316], for which the “LTR-III ΔTm” value is -0.3 °C.

As to `COc1ccc(C=C2N=C(C(C)(C)C)N(C)C2=O)cc1` [M 440], the “LTR-III ΔTm” value is -0.1 °C.

For `CCC1=NC(=Cc2ccc(OC)cc2)C(=O)N1C` [M 497a2], the “LTR-III ΔTm” value was -0.4 °C.

In the case of `CON1C(=O)C(=Cc2ccc(O)cc2)N=C1CCC(C)C` [M 552], the “LTR-III ΔTm” value was determined as 0 °C.

With `CC1=NC(=Cc2ccc(O)c(F)c2)C(=O)N1C` [M 556], the “LTR-III ΔTm” value was -0.2 °C.

Regarding `CON1C(=O)C=NC(=Cc2ccc(O)cc2)C1=O` [M 577], the “LTR-III ΔTm” value is 0.1 °C.

Consider `C=CCN1C(=O)C(=Cc2ccc(O[Si](c3ccccc3)(c3ccccc3)C(C)(C)C)cc2)N=C1C` [M 653], for which the “LTR-III ΔTm” value was -0.2 °C.

As for `CC(=O)Oc1ccc(C=C2N=C(C)N(CCNC(=O)OC(C)(C)C)C2=O)cc1` [M 678], the “LTR-III ΔTm” value is -0.4 °C.

Regarding `CCN(CC)c1ccc(C=C2N=C(C)N(C)C2=O)c(B(F)F)c1` [M 739], the “LTR-III ΔTm” value is -0.4 °C.

As for `CCC1=NC(=Cc2ccc(N(CC)CC)cc2)C(=O)N1C` [M 747], the “LTR-III ΔTm” value amounted to 0.6 °C.

Regarding `CN1C(=O)C(=Cc2ccc(O)cc2)N=C1c1ccccc1` [M 750], the “LTR-III ΔTm” value was -0.2 °C.

Turning to `CC1=NC(=Cc2ccc(O)cc2)C(=O)N(O)C1=O` [M 800], the “LTR-III ΔTm” value is -0.2 °C.

With `CC(C)CCC1=NC(=Cc2ccc(O)cc2)C(=O)N1` [M 803], the “LTR-III ΔTm” value is -0.1 °C.

As to `CCN(CC)c1ccc(C=C2N=C(C)N(CCCC(=O)O)C2=O)cc1` [M 820], the “LTR-III ΔTm” value was 0.1 °C.

Consider `CC1=NC(=Cc2cc(F)c(O)c(F)c2)C(=O)N1CCCC(=O)O` [M 894], for which the “LTR-III ΔTm” value was -0.3 °C.

With `CCN(CC)c1ccc(C=C2N=C(C=Cc3ccncc3)N(C)C2=O)cc1` [M 895], the “LTR-III ΔTm” value turned out to be 0.8 °C.

Regarding `CC1=NC(=Cc2cc(Br)c(O)c(Br)c2)C(=O)N1C` [M 906], the “LTR-III ΔTm” value was -2.7 °C.

Regarding `COc1ccc(C(=O)Oc2ccccc2)cc1` [M 939], the “LTR-III ΔTm” value was -1.1 °C.

Turning to `CCn1nnc2c(Nc3ccccc3)cccc2c1=O` [M 958A], the “LTR-III ΔTm” value is -0.7 °C.

For the compound `CN(C)C=CC1=NC(=Cc2ccc(O)cc2)C(=O)N1C` [M 995a], the “LTR-III ΔTm” value was found to be 0.1 °C.

Regarding `CN1C(=O)C(=Cc2ccc(O)cc2)N=C1C=Cc1ccccc1` [M 996a], the “LTR-III ΔTm” value came out at 0.1 °C.

`CC(=O)Oc1ccc(C=C2N=C(C=Cc3ccccc3)N(C)C2=O)cc1` [M 1009A]: the “LTR-III ΔTm” value worked out at 0.5 °C.

Take `CC(=O)Oc1ccc(C=C2N=C(C=Cc3ccncc3)N(C)C2=O)cc1` [M 1009B]: the “LTR-III ΔTm” value came to 0.5 °C.

On to `CCN(CC)c1ccc(C=C2N=C(C)NC2=O)cc1` [M 1045], for which the “LTR-III ΔTm” value is 0.1 °C.

In the case of `CN(C)c1ccc(C(O)(c2ccc(N(C)C)cc2)c2ccccn2)cc1` [M 1122], the “LTR-III ΔTm” value is -0.6 °C.

As to `COc1ccc(C(O)(c2ccccc2)c2ccccn2)cc1` (stereo not shown) [M 1136], the “LTR-III ΔTm” value is -0.7 °C.

For `CC1=CC(C)(C)N(C)c2ccc(C=C3N=C(C)N(C)C3=O)cc21` [M 1152], the “LTR-III ΔTm” value came to 0.6 °C.

`CNc1ccc(C=C2N=C(C)N(C)C2=O)cc1N` [M 1165]: the “LTR-III ΔTm” value was 0.9 °C.

For `Oc1cccc2nc3ccccc3nc12` [M 1255], the “LTR-III ΔTm” value was -0.6 °C.

With `CC1=NC(=Cc2cccc([N+](=O)[O-])c2)C(=O)N1C` [M 1257], the “LTR-III ΔTm” value was -0.9 °C.

Regarding `CC1=NC(=Cc2cccc(O)c2)C(=O)N1C` [M 1300], the “LTR-III ΔTm” value was found to be 0.2 °C.

Take `CCOC(=O)CN1C(=O)C(=Cc2cc3c4c(c2)CCCN4CCC3)N=C1C` [M 1343]: the “LTR-III ΔTm” value was determined as 0 °C.

With `CCOC(=O)/C=C/c1ccc(O[Si](c2ccccc2)(c2ccccc2)C(C)(C)C)cc1` [M 1352], the “LTR-III ΔTm” value was -0.5 °C.

As to `CC(C)(C)[Si](Oc1ccc(/C=C/CO)cc1)(c1ccccc1)c1ccccc1` [M 1359], the “LTR-III ΔTm” value is 0.1 °C.

The record behind these values is article PMC8533149 (Biomolecules, 2021).
